Values quoted from earlier work in PMC6270976, “Pharmacokinetic Study in Mice of Galphimine-A, an Anxiolytic Compound from Galphimia glauca” (Molecules, 2014).
“Also recorded” adds a separate entry of the source. Read-outs that look alike come from different tables or passages of the source.

Key:
[1] = cited from earlier work
[2] = parameters: method as in PMID 14758039; settings: cited from earlier work
[3] = parameters: method as in PMID 18452416; settings: humans; cited from earlier work

COC(=O)[C@@]12CC[C@@]3(C)[C@@H]4C=CC(=O)OC[C@]4([C@@H](C)O)C[C@@H](O)[C@@H]3[C@@]1(C)CC[C@@]1(C)CC=C(C)C[C@]12O [G–B, galphimine-B]
Anxiolytic activity ([1]; among the galphimines): most active; also recorded: highest anxiolytic activity

COC(=O)[C@@]12CC[C@@]3(C)[C@@H]4C=CC(=O)OC[C@]4([C@@H](C)O)[C@@H](OC(C)=O)[C@@H](O)[C@@H]3[C@@]1(C)CC[C@@]1(C)CC=C(C)C[C@]12O [G–E, galphimine-E]
Anxiolytic activity [1]: inactive

CC1(C)[C@@H](O)CC[C@]2(C)[C@H]3C(=O)C=C4[C@@H]5C[C@@](C)(C(=O)O)CC[C@]5(C)CC[C@@]4(C)[C@]3(C)CC[C@@H]12 [glycyrrhetinic acid]
k10 (elimination rate constant) ([2]; mice, 100 mg/kg orally, one-compartment model): 0.0006 min⁻¹ | AUC0→∞ ([2]; oral administration in mice): 2,454 µg·min·mL^−1 | k10 [3]: 0.0012 min⁻¹
